# Read-outs that look alike come from different tables or passages of the source.
# Tests used:
# [1] = Blood, brain and spinal cord exposure in SOD1G93A mice, b.i.d. dosing (RD-2019-00111); type: in vivo; settings: mouse, brain and spinal cord relative to blood, three hours after the final dose, read-out: brain and spinal cord drug exposure relative to blood
# Method: Dosing was examined in the SOD1G93A mouse model of ALS, the most commonly used rodent ALS model (RD-2019-00111). Twice daily dosing (b.i.d.) was examined after 5 consecutive dosing days. Microglia were depleted in the cortex by approximately 25% and 75% following treatment with 50 mg/kg and 80 mg/kg BLZ945. BLZ945 dosed b.i.d. at 10 mg/kg was not effective (FIG. 10 A).
# FIG. 10: BLZ945-mediated microglial depletion in the cortex, as assessed by Iba1/Aif-1 immunohistological staining (A) or in spinal cord by qPCR analysis (B) Values are group means±SD (n=3). (C and D) Exposure of BLZ945 in blood and CNS brain and spinal cord 3 hours after the final dose of the study.
# [2] = Phase I/II first-in-human study CBLZ945X2101: adverse events; type: in vivo
# Description: The purpose of this first-in-human (FIH) study of BLZ945 given as a single agent or in combination with spartalizumab is to characterize the safety, tolerability, pharmacokinetics (PK), pharmacodynamics, and anti-tumor activity of BLZ945, administered orally, as a single agent or in combination with spartalizumab, administered intravenously (i.v.) in adult patients with advanced solid tumors.
# This study is a FIH, open-label, multi-center, phase I/II, study which consists of a phase I dose escalation part of BLZ945 as single agent (including a separate Japanese BLZ945 single agent dose escalation arm) and in combination with spartalizumab. Alternative dosing regimens of BLZ945 may be evaluated. BLZ945 is being administered orally, and spartalizumab is being administered i.v. every four weeks until patient experiences unacceptable toxicity, progressive disease and/or treatment is discontinued at the discretion of the Investigator or the patient.
# BLZ945 dosing is being evaluated on the following schedules, 7 days on/7 days off (i.e., administer BLZ945 every day for 7 days and suspend for 7 days), once weekly (Q1W), and 4 days on/10 days off (i.e., administer BLZ945 every day for 4 days and suspend for 10 days). For each of these schedules, once per day (OD) or twice per day (BID) dosing may be evaluated. For once daily administration, patients should take their dose at approximately the same time in the morning. For the twice a day dosing, the first dose should be taken in the morning and the second dose should be taken approximately 10 to 12 hours after the morning dose.
# All patients treated with either BLZ945 single agent or in combination with spartalizumab will begin study treatment on Cycle 1 Day 1. Each cycle will consist of 28 days. […]
# As mentioned above, nausea, vomiting have been commonly observed to occur with single-agent administration of BLZ945 in the first-in-human trial (CBLZ945X2101). […] An additional cohort to evaluate 7 days on may also be evaluated.
# [3] = Blood and spinal cord exposure, 8-week SOD1G93A efficacy study; type: in vivo, SOD1G93A mouse; settings: for Kp at 3 h / concentration at 3 h: mouse; for Kp at 3 h: spinal cord relative to blood; for concentration at 3 h: blood, read-out: Blood conc.
# Method: BLZ945 was dosed over an 8-week period in a mouse model of ALS (in house data). BLZ945 was tested for efficacy in preventing or delaying disease progression in the SOD1G93A ALS mouse (RD-2019-00092). […] Normal body weight gain is also impaired in this model. These physiological impairments are considered as mechanistic readouts given that they best recapitulate the clinical disease phenotype (Turner et al 2013). Animals were dosed from 8 to 16 weeks of age with daily (q.d) doses of BLZ945 at either 65 mg/kg, 170 mg/kg, or 170 mg/kg delivered intermittently with a 7 day ON/7 day OFF regimen.
# Microglia were depleted by greater than 90% with the high dose (170 mg/kg) of BLZ945 and by about 50% with the low dose (65 mg/kg). […] Blood and CNS exposure to BLZ945 were measured at 3 hours post-dose on the day of necropsy (Table 8). BLZ945 spinal cord exposure ratios (relative to blood) were consistent across dose groups at approximately 0.4 (Table 9).
# [4] = system: tumor associated macrophages (TAM) and Tregs; test: Tumor infiltrating macrophages and Tregs by flow cytometry (MC38 model); type: in vivo, mouse; settings: BLZ945 4 days on/3 days off, single agent and with anti-PD-1
# Method: In order to access the dynamics of the tumor associated immune cells a repeat study using only the 4 days on/3 days off schedule as a single agent and in combination with anti-PD-1 was performed.
# FIG. 5 Analysis of tumor infiltrating macrophages (FIG. 5A) and Tregs (FIG. 5B) upon treatment with BLZ945 in a 4 days on/3 days off schedule on day 10 (A) and day 14 (B) and in combination with anti-PD-1 by flow cytometry. Statistical significance was calculated using a two-tailed, unpaired, non-parametric Mann-Whitney Test was performed to compare treatment to control groups.
smiles,measurement,setting,value
"CNC(=O)c1cc(Oc2ccc3nc(N[C@@H]4CCCC[C@H]4O)sc3c2)ccn1 [BLZ945, 4-((2-(((1R,2R)-2-hydroxycyclohexyl)amino)benzo[d]thiazol-6-yl)oxy)-N-methylpicolinamide]",Kp at 3 h,[1],~0.3
same,most frequently reported AEs (>10%) suspected to be related to treatment,[2]; in vivo,"aspartate aminotransferase (AST) increased, nausea, vomiting, alanine aminotransferase (ALT) increased, fatigue, amylase increased, blood creatine phosphokinase increased and decreased appetite"
same,serum enzyme elevation,[2]; in vivo,"Asymptomatic serum enzyme elevation including AST, ALT, CK and alkaline phosphatase elevations"
same,suspected SAEs (grade and kind),"[2]; single agent arm, combination arm","Grade 3 AST increased, Grade 3 asthenia and Grade 4 sudden death"
same,Spinal Cord Conc.,"[3]; 65 mg/kg q.d., 3 h post-dose",11799.8 pmol/g
same,Spinal Cord Conc.,"[3]; 170 mg/kg CONT, 3 h post-dose",28358.8 pmol/g
same,Spinal Cord Conc.,"[3]; 170 mg/kg INT (7 day ON/7 day OFF), 3 h post-dose",18573.5 pmol/g
same,Kp at 3 h,"[3]; SOD1G93A (transgenic ALS model), 170 mg/kg CONT, 3 h post-dose, read-out: Spinal Cord/Blood ratio",0.42
same,concentration at 3 h,"[3]; SOD1G93A, 65 mg/kg, 65 mg/kg q.d., 3 h post-dose",29.3 µM
same,concentration at 3 h,"[3]; SOD1G93A, 170 mg/kg, 170 mg/kg CONT, 3 h post-dose",66.3 µM
same,concentration at 3 h,"[3]; SOD1G93A, 170 mg/kg, 170 mg/kg INT (7 day ON/7 day OFF), 3 h post-dose",50.4 µM
same,Kp at 3 h,"[3]; SOD1G93A, 65 mg/kg q.d., 3 h post-dose, read-out: Spinal Cord/Blood ratio",0.42
same,Kp at 3 h,"[3]; SOD1G93A, 170 mg/kg INT (7 day ON/7 day OFF), 3 h post-dose, read-out: Spinal Cord/Blood ratio",0.36
same,Kp at 3 h,"[3]; SOD1G93A, across dose groups, 3 hours post-dose, read-out: spinal cord exposure ratios (relative to blood)",~0.4
same,TAM in tumor,[4]; after 10 and 14 days of treatment,significant decrease
same,Tregs in tumor,[4]; day 10 after treatment start,transient decrease

# Reference: patent publication US20230172920A1, “DOSING REGIMEN FOR TREATING A DISEASE MODULATED BY CSF-1R” (Novartis AG, priority 2020, published 2023)
